In patent US7879789B2, “Surfactant and composition containing the same” (priority 2006, dated 2011):

Test: Emulsion stability of Table 1 blending compositions with various emulsifiers
Type: physicochemical
Conditions: storage at low temperature; Table 2
Procedure: The present inventors have prepared various polyoxyalkylene substitution compounds according to the respective synthesis examples and evaluated the emulsion stability for the blending compositions shown in Table 1. The various evaluation items are as follows. “Emulsion Stability” The oil phase component, water phase component, and various emulsifiers shown in Table 1 were mixed, and the emulsification mixing was carried out with a homomixer at 8000 rpm for 1 minute. The appearance was visually observed 30 minutes after emulsification, and the appearances were also observed after being stored for 3 days on standing at room temperature and also at −5° C., respectively. The evaluation criteria were as follows. • ◯ . . . The emulsion was uniform and milky white. • Δ . . . A small amount of floating oil was observed; however, it was milky white. • X . . . Solid matter was observed, or the separation of the water phase and the oil phase was observed.

SMILES | emulsion stability at low temperature (in words)
CCCCCCCCCCCCOS(=O)(=O)[O-].[Na+] [Comparative Examples 1-1, Dodecyl sodium sulfate] | the emulsifier separated out
CCCCCCCCCCCC(=O)N[C@@H](CCC(=O)[O-])C(=O)[O-].[Na+].[Na+] [1-2, Sodium lauroyl-glutamate] | the emulsifier separated out
